Measurements: ChEMBL document CHEMBL4364299, “Discovery of a Potent Kelch-Like ECH-Associated Protein 1-Nuclear Factor Erythroid 2-Related Factor 2 (Keap1-Nrf2) Protein-Protein Interaction Inhibitor with Natural Proline Structure as a Cytoprotective Agent against Acetaminophen-Induced Hepatotoxicity” (J Med Chem, 2019)

Columns and labels:
[1] = target: Kelch-like ECH-associated protein 1 (Homo sapiens, UniProt Q14145); test: Displacement of FITC-LDEETGEFL-NH2 from human KEAP1 Kelch domain (322 to 609 residues) measured after 30 mins by fluorescence polarization assay
[2] = target: T1, Nuclear factor erythroid 2-related factor 2 (Homo sapiens) (UniProt Q16236); test: Activation of Nrf2 (unknown origin) stably transfected in human HepG2-ARE-C8 cells assessed as increase in ARE-driven luciferase activity at 0.01 uM by luciferase reporter gene assay relative to control; assay type: cell-based
T1 sequence (whole entry): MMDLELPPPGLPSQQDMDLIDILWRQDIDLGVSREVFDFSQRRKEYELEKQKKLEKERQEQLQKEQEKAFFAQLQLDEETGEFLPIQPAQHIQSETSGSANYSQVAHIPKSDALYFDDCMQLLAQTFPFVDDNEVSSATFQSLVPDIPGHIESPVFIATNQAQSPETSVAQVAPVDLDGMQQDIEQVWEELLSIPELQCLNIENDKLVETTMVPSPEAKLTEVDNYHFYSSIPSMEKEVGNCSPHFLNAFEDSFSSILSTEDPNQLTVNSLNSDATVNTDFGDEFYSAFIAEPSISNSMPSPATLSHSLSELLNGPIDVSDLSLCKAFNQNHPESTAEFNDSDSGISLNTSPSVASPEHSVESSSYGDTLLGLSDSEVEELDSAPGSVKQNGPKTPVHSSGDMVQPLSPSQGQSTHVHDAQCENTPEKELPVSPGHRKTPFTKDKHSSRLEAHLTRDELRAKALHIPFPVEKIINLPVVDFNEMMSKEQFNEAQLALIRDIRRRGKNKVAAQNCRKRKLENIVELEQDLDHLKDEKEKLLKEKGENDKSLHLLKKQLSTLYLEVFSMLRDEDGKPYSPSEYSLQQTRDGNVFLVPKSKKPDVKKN

[3] = target: T1, Nuclear factor erythroid 2-related factor 2 (Homo sapiens); test: Activation of Nrf2 (unknown origin) stably transfected in human HepG2-ARE-C8 cells assessed as increase in ARE-driven luciferase activity at 0.1 uM by luciferase reporter gene assay relative to control; assay type: cell-based
[4] = target: T1, Nuclear factor erythroid 2-related factor 2 (Homo sapiens); test: Activation of Nrf2 (unknown origin) stably transfected in human HepG2-ARE-C8 cells assessed as increase in ARE-driven luciferase activity at 1 uM by luciferase reporter gene assay relative to control; assay type: cell-based
[5] = target: T1, Nuclear factor erythroid 2-related factor 2 (Homo sapiens); test: Activation of Nrf2 (unknown origin) stably transfected in human HepG2-ARE-C8 cells assessed as increase in ARE-driven luciferase activity at 5 uM by luciferase reporter gene assay relative to control; assay type: cell-based
[6] = target: T1, Nuclear factor erythroid 2-related factor 2 (Homo sapiens); test: Activation of Nrf2 (unknown origin) stably transfected in human HepG2-ARE-C8 cells assessed as increase in ARE-driven luciferase activity at 10 uM by luciferase reporter gene assay relative to control; assay type: cell-based
[7] = target: T1, Nuclear factor erythroid 2-related factor 2 (Homo sapiens); test: Activation of Nrf2 (unknown origin) stably transfected in human HepG2-ARE-C8 cells assessed as increase in ARE-driven luciferase activity at 20 uM by luciferase reporter gene assay relative to control; assay type: cell-based

Kelch-like ECH-associated protein 1, sequence (Q14145 whole entry, the tested form may be a part): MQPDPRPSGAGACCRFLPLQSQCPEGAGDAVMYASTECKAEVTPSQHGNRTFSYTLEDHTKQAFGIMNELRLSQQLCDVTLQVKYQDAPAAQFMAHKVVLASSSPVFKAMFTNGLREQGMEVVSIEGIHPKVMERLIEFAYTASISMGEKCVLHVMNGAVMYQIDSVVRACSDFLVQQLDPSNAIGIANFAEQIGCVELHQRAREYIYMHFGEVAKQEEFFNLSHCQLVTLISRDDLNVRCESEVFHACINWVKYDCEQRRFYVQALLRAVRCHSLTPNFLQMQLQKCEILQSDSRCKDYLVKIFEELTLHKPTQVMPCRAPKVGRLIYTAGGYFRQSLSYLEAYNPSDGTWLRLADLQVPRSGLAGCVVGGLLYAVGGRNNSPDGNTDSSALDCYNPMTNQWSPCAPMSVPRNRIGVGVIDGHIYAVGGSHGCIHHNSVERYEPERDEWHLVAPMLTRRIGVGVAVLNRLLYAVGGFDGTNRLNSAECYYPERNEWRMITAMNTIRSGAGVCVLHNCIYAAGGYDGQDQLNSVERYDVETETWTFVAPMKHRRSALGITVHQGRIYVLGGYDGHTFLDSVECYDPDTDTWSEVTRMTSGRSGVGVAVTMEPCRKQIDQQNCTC

IC50 [1]	SMILES	further results
> 50 µM	COc1ccc(S(=O)(=O)Nc2ccc(N[C@@H](C)C(=O)O)c3ccccc23)cc1	–
> 50 µM	COc1ccc(S(=O)(=O)Nc2ccc(N[C@@H](CCS(C)(=O)=O)C(=O)O)c3ccccc23)cc1	–
> 50 µM	COc1ccc(S(=O)(=O)Nc2ccc(N[C@H](C(=O)O)C(C)(C)C)c3ccccc23)cc1	–
> 50 µM	COc1ccc(S(=O)(=O)Nc2ccc(N[C@H](C(=O)O)C(C)C)c3ccccc23)cc1	–

Continued, compound first:

SMILES	IC50 [1]	further results
COc1ccc(S(=O)(=O)Nc2ccc(N[C@@H](Cc3c[nH]c4ccccc34)C(=O)O)c3ccccc23)cc1	> 50 µM	–
CC(C)(C)c1cc(O)ccc1O	–	fold change (FC) [2]: 1.04; fold change (FC) [3]: 1.02; fold change (FC) [4]: 1.46; fold change (FC) [5]: 2.27; fold change (FC) [6]: 3.38; fold change (FC) [7]: 4.87
COc1ccc(S(=O)(=O)Nc2ccc(N[C@@H](CC(C)C)C(=O)O)c3ccccc23)cc1	> 50 µM	–
COc1ccc(S(=O)(=O)Nc2ccc(N[C@@H](Cc3ccc(O)cc3)C(=O)O)c3ccccc23)cc1	> 50 µM	–
COc1ccc(S(=O)(=O)N(CC(=O)O)c2ccc(N[C@@H](CO)C(=O)O)c3ccccc23)cc1	> 50 µM	–
COc1ccc(S(=O)(=O)Nc2ccc(N[C@@H](CO)C(=O)O)c3ccccc23)cc1	> 50 µM	–
